Experimental data: PMC4126480, “Evaluation of drug interaction potential of Labisia pumila (Kacip Fatimah) and its constituents” (Frontiers in Pharmacology, 2014)

Target: T1, PXR (Homo sapiens, UniProt O75469)
T1 construct: expressed in transfected cells; host or cells: HepG2 cells, transient electroporation with pSG5-PXR and the CYP3A4-PXRE-LUC reporter
T1 sequence (O75469 1-434): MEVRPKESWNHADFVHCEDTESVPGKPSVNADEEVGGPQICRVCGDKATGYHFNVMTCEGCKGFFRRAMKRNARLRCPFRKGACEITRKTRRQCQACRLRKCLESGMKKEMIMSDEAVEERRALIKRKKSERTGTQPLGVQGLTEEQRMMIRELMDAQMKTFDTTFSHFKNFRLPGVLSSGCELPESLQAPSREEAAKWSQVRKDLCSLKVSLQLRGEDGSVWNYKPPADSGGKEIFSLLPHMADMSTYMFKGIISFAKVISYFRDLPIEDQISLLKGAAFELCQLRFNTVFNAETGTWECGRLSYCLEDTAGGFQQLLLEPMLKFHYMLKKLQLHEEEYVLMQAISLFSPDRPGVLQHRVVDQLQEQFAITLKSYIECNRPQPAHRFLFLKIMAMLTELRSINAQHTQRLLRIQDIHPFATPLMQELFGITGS
Experiment: PXR activation, luciferase reporter gene assay in HepG2 cells
Assay type: cell-based
Protocol: The modulation of PXR activity by test samples was determined in HepG2 cells transiently transfected with pSG5-PXR (25 μg) and PCR5 plasmid DNA (25 μg) by electroporation at 180 V, 1 pulse for 70 msec. The cells were plated in 96-well plates at a density of 50,000 cells per well. After 24 h, test samples and drug controls were added at various concentrations. After additional 24 hour incubation, the media was aspirated and 40 μL of luciferase reagent (Promega Corporation, Madison, WI, USA) was added to each well and luminescence was measured on Spectramax M5 plate reader (Molecular Devices, Sunnyvale, CA, USA). The fold induction in luciferase activity in the treated cells was calculated in comparison to vehicle treated cells.

- Induction of PXR activity (HepG2, 30 μM (highest tested concentration), vs vehicle): 1.8 fold
- Induction of PXR activity at lower concentration (HepG2, below 30 μM): not significant
SMILES: CCCC/C=C\CCCCCCCCCc1cc(O)cc2oc3cc(OC)c(O)c(CCCCCCCCC/C=C\CCCC)c3c12 [Fatimahol]
